In brackets after ≈: the same amount, converted by molar mass. Entries after “also recorded” stand apart in the source; their conditions may differ.
What was measured:
[1] = Solubility in PBS determined by mass spectroscopy; type: physicochemical; conditions: aqueous buffer, 24 h incubation at room temperature, read-out: solubility: no detectable aggregation up to
Procedure: FIG. 15—The solubility of BRD7087 compound in PBS as determined by mass spectroscopy after 24 h of incubation at room temperature. Compounds Antipyrine and Clotrimazole were used as positive controls.
FIG. 59. The solubility of BRD7087 compound in PBS as determined by Mass spectroscopy after 24 h of incubation at room temperature. Compounds Antipyrine and Clotrimazole have been used as the positive controls.

[2] = biological target: SpCas9 (Streptococcus pyogenes serotype M1, UniProt Q99ZW2); assay: mCherry-GFP NHEJ assay; type: cell-based; conditions: HEK293T cells; 2-10 μM; 24 h
Chain of SpCas9 (Q99ZW2 whole entry): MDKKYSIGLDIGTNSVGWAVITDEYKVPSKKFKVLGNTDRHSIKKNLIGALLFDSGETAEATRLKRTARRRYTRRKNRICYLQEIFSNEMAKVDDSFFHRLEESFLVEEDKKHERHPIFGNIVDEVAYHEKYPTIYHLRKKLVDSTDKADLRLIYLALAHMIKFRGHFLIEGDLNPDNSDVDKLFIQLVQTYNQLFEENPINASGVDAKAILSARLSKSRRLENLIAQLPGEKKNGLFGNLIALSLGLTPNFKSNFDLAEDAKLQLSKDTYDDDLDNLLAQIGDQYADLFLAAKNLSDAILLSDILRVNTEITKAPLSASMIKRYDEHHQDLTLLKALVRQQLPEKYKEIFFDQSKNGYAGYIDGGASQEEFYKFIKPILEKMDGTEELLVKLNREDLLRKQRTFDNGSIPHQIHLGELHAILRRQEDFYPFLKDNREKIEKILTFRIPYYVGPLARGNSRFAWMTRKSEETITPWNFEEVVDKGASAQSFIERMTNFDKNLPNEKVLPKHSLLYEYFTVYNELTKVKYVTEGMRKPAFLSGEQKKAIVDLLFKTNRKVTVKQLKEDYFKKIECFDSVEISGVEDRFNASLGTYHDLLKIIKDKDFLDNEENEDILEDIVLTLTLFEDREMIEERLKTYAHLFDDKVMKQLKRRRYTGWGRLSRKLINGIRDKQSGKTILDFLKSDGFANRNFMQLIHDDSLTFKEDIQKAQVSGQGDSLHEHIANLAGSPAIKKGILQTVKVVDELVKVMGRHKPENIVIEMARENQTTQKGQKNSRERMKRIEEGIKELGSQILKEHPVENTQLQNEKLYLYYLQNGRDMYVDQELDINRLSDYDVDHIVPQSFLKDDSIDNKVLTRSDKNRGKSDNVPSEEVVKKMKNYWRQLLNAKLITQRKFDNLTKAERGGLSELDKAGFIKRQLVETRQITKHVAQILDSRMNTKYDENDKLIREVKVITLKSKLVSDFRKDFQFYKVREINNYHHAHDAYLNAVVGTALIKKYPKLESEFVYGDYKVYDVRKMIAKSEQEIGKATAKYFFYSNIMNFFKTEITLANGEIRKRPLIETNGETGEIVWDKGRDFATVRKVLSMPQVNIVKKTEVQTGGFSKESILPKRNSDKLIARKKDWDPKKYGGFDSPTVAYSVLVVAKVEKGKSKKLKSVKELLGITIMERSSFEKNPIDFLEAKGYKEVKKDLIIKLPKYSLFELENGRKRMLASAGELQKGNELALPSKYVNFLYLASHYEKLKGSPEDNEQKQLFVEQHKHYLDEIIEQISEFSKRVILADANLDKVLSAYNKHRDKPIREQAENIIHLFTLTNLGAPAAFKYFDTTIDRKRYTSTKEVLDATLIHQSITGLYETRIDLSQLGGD
Procedure: NHEJ assay. Approximately 8,000 cells/well were plated in a 96-well format 24 h before transiently transfected with a total 100 ng of DN66 (mCherry-TAG-GFP reporter) and DN78 (SpCas9 and gRNA) plasmids (1:1) using lipofectamine 2000 (Life Technologies) 3. Transfected cells were allowed to grow in the indicated amount of compound or DMSO for 24 h. Cells were then fixed using 4% paraformaldehyde and imaged with the HCS NuclearMask™ Blue Stain (Life Technologies) as the nuclear counter-staining agent. Imaging was performed with an IXM 137204 ImageXpress Automated High Content Microscope (Molecular Devices) at 20× magnification under three excitation channels (blue, green and red) with 9 acquiring sites per well. Images were analyzed in the MetaXpress software to determine the % NHEJ and the data were plotted using GraphPad Prism 6. The Z′-value was calculated following the formula: […]

[3] = tested on: S. aureus RN4220 strain; assay: Bacterial resistance study against phage (CRISPR-immunity, OD600 growth curves); type: cell-based; conditions: 5-20 μM; for blockage of CRISPR-immunity: sensitization of immune bacterial cells to phage: OD600 over 16 hours, phage MOI 1
Procedure: (§1) Bacterial study. Plasmid pRH248 harboring SpCas9, tracrRNA and a single-spacer array ([…]) (SEQ ID 13) No. targeting phage (DNM474 was constructed via BsaI cloning onto pDB114 as described in Heler et al 6. Plate reader growth curves of bacteria infected with phage were conducted as described previously with minor modifications 7. Overnight cultures were diluted 1:100 into 2 ml of fresh BHI supplemented with appropriate antibiotics and 5 mM CaCl2) and grown to an OD600 of ˜0.2. Immune cells carrying pRH248 were diluted with cells lacking CRISPR-Cas in a 1:10,000 ratio. Following a 15-minute pre-incubation with DMSO or with varying amounts of inhibitors (5-20 μM), the cultures were infected with <DNM474 at an initial MOI of 1. To produce plate reader growth curves, 200 μL of infected cultures, normalized for OD600, were transferred to a 96-well plate in triplicate. OD600 measurements were collected every 10 minutes for 16 hours. Similarly, growth curves to evaluate the toxicity of the compounds at 20 μM (FIG. 32) were conducted on cultures lacking CRISPR in the absence of phage.
as §1, with “NO:38)” for “13) No.”, “DNM474” for “(DNM474”, “al^6.” for “al 6.”, “modifications^7.” for “modifications 7.”, “DNM474” for “<DNM474”, “Similarly, growth curves to evaluate the toxicity of the compounds at 20 μM (FIG. 32) were conducted on cultures lacking CRISPR in the absence of phage.” left out

[4] = tested on: S. aureus RN4220 strain; assay: Toxicity study of compounds in bacterial culture (no phage); type: cell-based; conditions: 20 μM; 16 h; inhibitor alone
Procedure: FIG. 79. Toxicity study of compounds in bacterial culture. Bacterial growth study in the presence of the compound. Bacterial cell S. aureus RN4220 strain was allowed to grow either in the presence of DMSO or 20 μM of compound BRD7087 or BRD5779 over 16 h. The experiment was performed in three technical replicates.
as §1, with “Following a 15-minute pre-incubation with DMSO or with varying amounts of inhibitors (5-20 μM), the cultures were infected with <DNM474 at an initial MOI of 1.” left out, “OD600 measurements were collected every 10 minutes for 16 hours. Similarly, growth curves to evaluate the toxicity of the compounds at 20 μM (FIG. 32) were conducted on cultures lacking CRISPR in the absence of phage.” left out
Bacterial study. […] Plate reader growth curves of bacteria infected with phage were conducted as described previously with minor modifications^7. […] To produce plate reader growth curves, 200 μL of infected cultures, normalized for OD600, were transferred to a 96-well plate in triplicate. […]

**Q.** With COc1ccc(-c2ccc3c(c2)[C@H]2[C@H](CCN2Cc2ccncc2)[C@@H](CO)N3)cc1 [BRD5779, ((3aR,4S,9bR)-8-(4-Methoxyphenyl)-1-(pyridin-4-ylmethyl)-2,3,3a,4,5,9b-hexahydro-1H-pyrrolo[3,2-c]quinolin-4-yl)methanol] as the compound, how does the solubility at 24 h [1] read?
**A.** ~75 µM (≈ 30.1 µg/mL)

**Q.** What about the “inhibition of SpCas9-mediated NHEJ” value [2] of the same compound?
**A.** Dose-dependent inhibition of SpCas9-mediated NHEJ; also recorded: active

**Q.** And the “blockage of CRISPR-immunity: sensitization of immune bacterial cells to phage” value [3]?
**A.** able to sensitize the immune bacterial cells against target phage in a dose-dependent manner; also recorded: dose-dependent blockage of CRISPR-Cas9 based immunity

**Q.** And the “toxicity to bacteria in the absence of phage” value [4]?
**A.** non-toxic in the absence of phage

**Q.** With OC[C@H]1Nc2ccc(-c3cccc(F)c3)cc2[C@H]2[C@@H]1CCN2Cc1ccncc1 [BRD7087, ((3aR,4S,9bR)-8-(3-Fluorophenyl)-1-(pyridin-4-ylmethyl)-2,3,3a,4,5,9b-hexahydro-1H-pyrrolo[3,2-c]quinolin-4-yl)methanol] as the compound, how does the solubility at 24 h [1] read?
**A.** ~75 µM (≈ 29.2 µg/mL)

**Q.** And the “inhibition of SpCas9-mediated NHEJ” value [2]?
**A.** Dose-dependent inhibition of SpCas9-mediated NHEJ; also recorded: active

**Q.** What about the “activity in phage assay compared with BRD5779” value [3] of the same compound?
**A.** higher activity

**Q.** What about the “blockage of CRISPR-immunity: sensitization of immune bacterial cells to phage” value [3] of the same compound?
**A.** able to sensitize the immune bacterial cells against target phage in a dose-dependent manner; also recorded: dose-dependent blockage of CRISPR-Cas9 based immunity

**Q.** What about the “toxicity to bacteria in the absence of phage” value [4] of the same compound?
**A.** non-toxic in the absence of phage
